From US20220354835A1, “COMPOUNDS FOR DEGRADING TAU PROTEIN AGGREGATES AND USES THEREOF” (Aprinoia Therapeutics Limited, priority 2019, published 2022)

Each compound was assayed against T1, heparin-induced aggregated tau (aTau), full-length 2N4R human Tau (Homo sapiens, UniProt P10636) (assay: In vitro fluorometric aTau binding assay). Conditions: 0.04 μM aTau, serially diluted compound 10 to 0.00017 μM, 37° C. 1 hour, fluorescence.
T1 construct: transformed with a full-length 2N4R tau expression plasmid; made in house; host or cells: E. coli BL21
T1 sequence (P10636 1-441 isoform P10636-8): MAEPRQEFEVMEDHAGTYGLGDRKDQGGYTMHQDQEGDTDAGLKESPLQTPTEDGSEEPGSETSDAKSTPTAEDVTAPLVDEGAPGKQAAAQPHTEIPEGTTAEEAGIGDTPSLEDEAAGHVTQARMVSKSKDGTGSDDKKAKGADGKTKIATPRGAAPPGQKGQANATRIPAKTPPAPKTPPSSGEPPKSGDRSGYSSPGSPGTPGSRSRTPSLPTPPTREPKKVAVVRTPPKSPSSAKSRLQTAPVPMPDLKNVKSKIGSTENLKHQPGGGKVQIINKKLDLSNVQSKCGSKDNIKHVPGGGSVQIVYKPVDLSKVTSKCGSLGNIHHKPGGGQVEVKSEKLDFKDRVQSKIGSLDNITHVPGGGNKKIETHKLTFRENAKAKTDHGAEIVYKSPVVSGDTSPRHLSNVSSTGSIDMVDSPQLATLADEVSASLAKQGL
Protocol: (§1) (A) Expression and purification of human Tau: 1 mM IPTG (Sangon Biotech, Cat. No A100487) was used to induce production of tau by bacteria (BL21, Invitrogen, Cat. No C600003) transformed with a full-length 2N4R tau expression plasmid. After 3 hours, cell pellet was resuspended in lysis buffer (100 mM PIPES, 1 mM EGTA, 1 mM MgSO4, pH 6.8) and lysed by sonication followed by centrifugation (15,000 rpm, 15 min, 4° C.). The supernatant was then placed in a boiling water bath for 20 min, followed by centrifugation (15,000 rpm, 15 min, 4° C.). Supernatant was loaded onto a Q-Sepharose® Fast Flow column (GE healthcare, Cat. No 17-0510-01), the flow-through fraction was loaded onto an SP-Sepharose® Fast Flow column (GE healthcare, Cat. No 17-0729-01), and tau protein was eluted with elution buffer (100 mM PIPES, 1 M NaCl, 1 mM EGTA, 1 mM MgSO4, 0.2 M NaCl, pH 6.8). Collected fractions of tau-containing eluates were pooled, concentrated and dialyzed against HEPES buffer (25 mM HEPES, 0.1 mM EDTA, 0.5 mM DTT, 100 mM NaCl, pH 7.2) and stored at −80° C. in small aliquots until use. Protein concentration was determined by UV absorption.
(§2) (B) Preparation of heparin-induced aggregated tau (aTau): 2 μM of tau prepared in 30 mM Tris-HCl, pH 7.5 buffer was incubated in tube with 15 μM heparin (Sigma, Cat. No H3149) at 37° C. for 24 hours.
(D) In vitro fluorometric aTau binding assays: 2 μM aTau was diluted to 0.04 μM with 30 mM Tris-HCl (pH 6.8), and then incubated with serially diluted compound (three-fold serial dilutions, from 10 to 0.00017 μM) in a 96-well plate (Corning, Cat. No 3573) at 37° C. for 1 hour. Fluorescence intensity (excitation/emission=370/500 nm) of APN-0729 was read by microplate spectrometer (EnSpire 2300, PerkinElmer). Compound Kd values were calculated using the following equation: Y=Bmax* X (Kd+X), where X is the concentration of compound; Y is the fluorescence signal of (compound+aTau)−(compound+DMSO); and Bmax is the maximum signal.
Compound `CN(C)c1ccc2nc(-c3ccc(-c4ccc(NCCOCCOCCOCCOCCOCCOc5ccc6c(c5)C(=O)N(C5CCC(=O)NC5=O)C6=O)nc4)cc3)sc2c1` (stereo not drawn) [Compound 160275, 2-[2,6-bis(oxo)piperidin-3-yl]-5-[2-[2-[2-[2-[2-[2-[[5-[4-[6-(dimethylamino)-1,3-benzothiazol-2-yl]phenyl]pyridin-2-yl]amino]ethoxy]ethoxy]ethoxy]ethoxy]ethoxy]ethoxy]isoindole-1,3-dione] has a Kd of 230 nM.

These compounds were tested against T1, heparin-induced aggregated tau (aTau), full-length 2N4R human Tau (assay: PBB5 competition assay). Conditions: 0.12 μM aTau, 0.1 μM PBB5, 37° C. 1 hour, PBB5 fluorescence 530/690 nm.
Format: binding
Protocol: as §1, §2
(E) PBBS competition assay: 2 μM of aTau was diluted to 0.12 μM by […] (pH 6.8) and then incubated with 0.1 μM 2-(4-(2-(methylamino)pyridine-5-yl)-1,3-butadiene-1-yl)benzothiazole-6-ol (PBB5) and serially diluted compound (three-fold serial dilution, from 10 to 0.00017 μM) in a 96-well plate (Corning, Cat. No 3573) at 37° C. for 1 hour. Fluorescence intensity (excitation/emission=530/690 nm) of PBB5 was read by microplate spectrometer (EnSpire 2300, PerkinElmer). Percentage of competition was calculated using the following equation: (Max−well of compound alone)/(Max−Min)*100%, where Max=(Tau+PBB5) signals−(buffer+PBB5) signals; and Min=(buffer+PBB5) signals−(buffer+PBB5) signals.
The IC50 value of each compound was calculated with GraphPad Prism software using the “4 Parameter Logistic Model or Sigmoidal Dose-Response Model”:
Y=Bottom+(Top−Bottom)/(1+(IC50/×)^HillSlope)
`CN(C)c1ccc2nc(-c3ccc(-c4ccc(NCCOCCOCCOCCOCCOCCOc5ccc6c(c5)C(=O)N(C5CCC(=O)NC5=O)C6=O)nc4)cc3)sc2c1` (stereo not drawn) [Compound 160275, 2-[2,6-bis(oxo)piperidin-3-yl]-5-[2-[2-[2-[2-[2-[2-[[5-[4-[6-(dimethylamino)-1,3-benzothiazol-2-yl]phenyl]pyridin-2-yl]amino]ethoxy]ethoxy]ethoxy]ethoxy]ethoxy]ethoxy]isoindole-1,3-dione] was tested, and the IC50 was 1290 nM.

Same assay, conditions: 0.12 μM aTau, 0.1 μM PBB5, compound up to 10 μM; read-out: Competition Assay with PBB5: Bmax (%)
`CN(C)c1ccc2nc(-c3ccc(-c4ccc(NCCOCCOCCOCCOCCOCCOc5ccc6c(c5)C(=O)N(C5CCC(=O)NC5=O)C6=O)nc4)cc3)sc2c1` (stereo not drawn) [Compound 160275, 2-[2,6-bis(oxo)piperidin-3-yl]-5-[2-[2-[2-[2-[2-[2-[[5-[4-[6-(dimethylamino)-1,3-benzothiazol-2-yl]phenyl]pyridin-2-yl]amino]ethoxy]ethoxy]ethoxy]ethoxy]ethoxy]ethoxy]isoindole-1,3-dione] was tested, and the Emax was 96%. `CN(C)c1ccc(-c2ccc(-c3cn4cc(OCCOCCN5C(=O)CCC(N6C(=O)c7ccc(O)cc7C6=O)C5=O)ccc4n3)cc2)c(F)n1` (stereo not drawn) [Compound 160570, 2-[1-[2-[2-[2-[4-[6-(dimethylamino)-2-fluoranyl-pyridin-3-yl]phenyl]imidazo[1,2-a]pyridin-6-yl]oxyethoxy]ethyl]-2,6-bis(oxidanylidene)piperidin-3-yl]-5-oxidanyl-isoindole-1,3-dione] showed an Emax of 100%. For `CN(C)c1ccc2nc(-c3ccc(-c4ccc(NCCOCCN5C(=O)CCC(N6C(=O)c7ccc(O)cc7C6=O)C5=O)nc4)cc3)sc2c1` (stereo not drawn) [Compound 160703, 2-[1-[2-[2-[[5-[4-[6-(dimethylamino)-1,3-benzothiazol-2-yl]phenyl]pyridin-2-yl]amino]ethoxy]ethyl]-2,6-bis(oxidanylidene)piperidin-3-yl]-5-oxidanyl-isoindole-1,3-dione], the Emax was 100%.

What follows are compounds tested against T2, Tau aggregates in P301L-Tau-FL-GFP HEK293 cells (Homo sapiens, UniProt P10636, P618L) (assay: Tau degradation assay (APNmAb005 ELISA-based Tau aggregation assay)). Conditions: 1 μM compound, APNmAb005 ELISA.
T2 construct: express full-length human tau T40 (2N4R) carrying the P301L mutation with a GFP tag; expressed in transfected cells
T2 sequence (P10636 1-441 isoform P10636-8 P301L): as the sequence (P10636 1-441 isoform P10636-8) above, with P301L counted along it
Format: cell-based
Protocol: (A). Cell-based model of Tau inclusion formation: Six month old rTg4510 mouse brain lysates were used as the source of tau seeds, prepared as described in Example 26 above. P301L-Tau-FL-GFP HEK293 cells represent HEK293 cells express full-length human tau T40 (2N4R) carrying the P301L mutation with a GFP tag (P301L-Tau-FL-GFP). 1×10^6 of P301L-Tau-FL-GFP HEK293 cells were cultured on a 6-well plate in culture medium containing DMEM/F-12 (Gibco) supplemented with 10% fetal bovine serum (FBS) (Gibco), 1% Penicillin-Streptomycin (Gibco) and 0.5 mg/ml geneticin (Thermo Fisher Scientific) for 24 hours to reach 70-90% confluency, indicating the cells were ready for transfection. 50 μg of 6-month-old rTg4510 mouse brain lysate was diluted in 400 μL of serum free medium and mixed with 16 μL of lipofectamine 3000 reagent (Thermo Fisher Scientific) diluted in 400 μl of serum free medium. A solution mixture of rTg4510 brain lysate and lipofectamine 3000 was incubated at room temperature for 25 min. The culture media were removed, and then a solution mixture of rTg4510 lysate and lipofectamine 3000 was added to the cells for transfection. The solution mixture was incubated at room temperature for five hours, followed by medium change to 10% fetal bovine serum (FBS). After two-day incubation, Tau aggregates (Tau spots) were induced and images were acquired by ImageXpress Micro Confocal high-content imaging system (Molecular Devices) as described in Example 52 above. Analysis was performed by two customized modules in MetaXpress software (Molecular Devices) for aggregated tau analysis. Output included cell numbers, numbers of tau spots, average intensity of tau spots, and average size of tau spots.
(B). Compound treatment: 100 μL of 3×10^4 cells comprising Tau aggregates, prepared as described above in step (A), were plated on a 96-well plate coated with poly-D-lysine (BD Biosciences) and cultured for 24 hours. Compounds to be tested were dissolved in culture medium containing 0.1% DMSO. Each of test compounds in the concentration of 1, 0.2 and 0.04 μM was added to the cells comprising Tau aggregates and incubated at 37° C. for 24 hours. After that, culture medium was removed, cells were washed with PBS solution and then lysed using 30 μL of lysis buffer (PBS containing 0.3% Triton X-100 and 400 mM NaCl) for one hour at 4° C., and then cell lysate was diluted by 170 μl of PBS containing 400 mM NaCl. Cell lysate was filtrated by a […] filtration plate (Pall) and applied for Tau aggregation assay.
(C). Control cell lysate: control cell lysate was collected from non-seeded cells.
(D). ELISA-based Tau aggregation assay: APNmAb005 ELISA kit for Tau aggregation assay was designed and developed to detect abnormal tau aggregates in buffered solution or cell lysate by using anti-Tau APNmab005 as capture and detection antibody. This antibody is a highly specific antibody bound to human tau aggregates accumulated in mammalian cells. APNmAb005 is recited in PCT Patent Application No. PCT/M2020/057415, filed Aug. 5, 2020, which is incorporated herein by reference.
0.15 μg of APNmAb005 in 100 mM sodium carbonate buffer (pH 9.6) was coated on a high-binding polystyrene 96-well microplate (Greiner Bio-One) at 4° C. overnight. The microplate was washed with PBS followed by treatment with Intercept (PBS) blocking buffer (LI-COR) at room temperature for 2 hours. After that, the microplate was washed with PBS, and then the cell lysate with compound treatment, prepared as described above in step (C), was added into each well of the microplate and incubated at room temperature for 2 hours. The microplate was washed with PBS and then incubated with HRP-conjugated secondary antibody APNmAb005 at room temperature for 3 hours. HRP-conjugated secondary antibody APNmAb005 was prepared using HRP conjugation kit (Abcam,ab102890). The microplate was then washed with PBS and incubated with 100 μL of horseradish peroxidase (HRP) substrate at room temperature. […]
`CN(C)c1ccc(-c2ccc(-c3cn4cccc(OCCOCCOc5ccc6c(c5)CN(C5CCC(=O)NC5=O)C6=O)c4n3)cc2)cn1` (stereo not drawn) [Compound 162842] was tested, and the “Optical Density (O.D.) 450 value decrease compared to vehicle (reduction of Tau aggregates)” value was 20%.

Same assay, conditions: 1 μM of compound, 24 hours, P301L-Tau-FL-GFP HEK293 cells seeded with rTg4510 brain lysate; read-out: Activity (reduction of tau aggregates)
Compound `CN(C)c1ccc(-c2ccc(-c3nc4ccc(NCCOCCOCCOCCOc5ccc6c(c5)C(=O)N(C5CCC(=O)NC5=O)C6=O)cc4s3)cc2)cn1` (stereo not drawn) [Compound 160939, 2-[2,6-bis(oxo)piperidin-3-yl]-5-[2-[2-[2-[2-[[2-[4-[6-(dimethylamino)pyridin-3-yl]-phenyl]-1,3-benzothiazol-6-yl]amino]ethoxy]ethoxy]ethoxy]ethoxy]isoindole-1,3-dione] has an inhibition at 1 µM of under 10%. Compound `COc1ccc2nc(-c3ccc(-c4ccc(NCCOCCOc5ccc6c(c5)C(=O)N(C5CCC(=O)NC5=O)C6=O)nc4F)cc3)cn2c1` (stereo not drawn) [Compound 161215, 2-[2,6-bis(oxo)piperidin-3-yl]-5-[2-[2-[[6-fluoro-5-[4-(6-methoxyimidazo[1,2-a]pyridin-2-yl)phenyl]pyridin-2-yl]amino]ethoxy]ethoxy]isoindole-1,3-dione] has an inhibition at 1 µM of 10 to 20%. In the case of `COc1ccc2nc(-c3ccc(-c4ccc(NCCOCCOCCOCCOCCOCCOc5ccc6c(c5)C(=O)N(C5CCC(=O)NC5=O)C6=O)nc4F)cc3)cn2c1` (stereo not drawn) [Compound 161409], the inhibition at 1 µM is reported as 10 to 20%. `COc1ccc2nc(-c3ccc(-c4ccnc(NCCOCCOc5ccc6c(c5)CN(C5CCC(=O)NC5=O)C6=O)c4)cc3)cn2c1` (stereo not drawn) [Compound 162640, 3-[6-[2-[2-[[4-[4-(6-methoxyimidazo[1,2-a]pyridin-2-yl)phenyl]pyridin-2-yl]amino]ethoxy]ethoxy]-3-oxidanylidene-1H-isoindol-2-yl]piperidine-2,6-dione] showed an inhibition at 1 µM of 10 to 20%. Work on `CN(C)c1ccc(-c2ccc(-c3cn4cccc(OCCOCCOc5ccc6c(c5)CN(C5CCC(=O)NC5=O)C6=O)c4n3)cc2)cn1` (stereo not drawn) [Compound 162842] yielded an inhibition at 1 µM of over 20%. `CN(C)c1ccc(-c2ccc(-c3nc4ccc(OCCOCCOc5ccc6c(c5)CN(C5CCC(=O)NC5=O)C6=O)cc4s3)c(C(F)(F)F)c2)cn1` (stereo not drawn) [Compound 162903] was tested, and the inhibition at 1 µM was 10 to 20%. In the case of `CN(C)c1ccc(-c2ccc(-c3nc4ccc(OCCOCCOc5ccc6c(c5)CN(C5CCC(=O)NC5=O)C6=O)cc4s3)cc2)cn1` (stereo not drawn) [Compound 163123], the inhibition at 1 µM is reported as 10 to 20%. Work on `CN(C)c1ccc(-c2ccc(-c3nc4ccc(OCCOCCOc5ccc6c(c5)CN(C5CCC(=O)NC5=O)C6=O)cc4o3)cc2)cn1` (stereo not drawn) [Compound 163365] yielded an inhibition at 1 µM of 10 to 20%. In the case of `CN(C)c1ccc(-c2ccc(-c3cn4cc(OCCOCCN5C(=O)CCC(N6C(=O)c7ccc(O)cc7C6=O)C5=O)ccc4n3)cc2)c(F)n1` (stereo not drawn) [Compound 170350], the inhibition at 1 µM is reported as 10 to 20%. In the case of `CN(C)c1ccc(-c2ccc(-c3nc4ccc(OCCOCCOCCOc5ccc6c(c5)CN(C5CCC(=O)NC5=O)C6=O)cc4s3)c(C(F)(F)F)c2)cn1` (stereo not drawn) [Compound 174251], the inhibition at 1 µM is reported as under 10%. In the case of `CN(C)c1ccc2nc(-c3ccc(-c4ccc(NCCOCCOc5ccc6c(c5)CN(C5CCC(=O)NC5=O)C6=O)nc4)cc3C(F)(F)F)sc2c1` (stereo not drawn) [Compound 177031], the inhibition at 1 µM is reported as under 10%. With `COc1ccc2nc(-c3ccc(-c4ccc(NCCOCCOc5cccc6c5C(=O)N(C5CCC(=O)NC5=O)C6=O)nc4)cc3)sc2c1` (stereo not drawn) [Compound 177038] the inhibition at 1 µM was under 10%.
